# Test results published in PubChem BioAssay AID449764 (Southern Research Specialized Biocontainment Screening …, 2010).
# Tested on: Mycobacterium tuberculosis H37Rv growth inhibition, no glycerol
# Test: Mycobacterium tuberculosis H37Rv growth inhibition, no glycerol, confirmatory dose response (AID 449764);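 also: growth read after 7 days of incubation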
# Details: not given
row,SMILES,IC50
1,CCc1ccc2c(c1)/C(=C/C(=O)c1cccs1)C(=O)N2,2.55 µM
2,Oc1ccccc1-c1nnc(COc2ccccc2)o1,19 µM
3,CCOC(=O)c1cnc2ccc(OCC)cc2c1N1CCN(c2ccccc2)CC1,25.9 µM
4,S=c1nc[nH]c2nc[nH]c12,3.32 µM
5,CCN(CC)c1nc(NN)nc(Nc2ccc(C)c(Cl)c2)n1,5.84 µM
6,CC1(C)Cc2c(C#N)c(N3CCN(C(=O)c4ccccc4)CC3)nc(Cc3ccccc3)c2CO1,31.4 µM
7,CNc1nc(SCc2ccccc2Cl)nc2c1CCCC2,0.45 µM
8,O=C(CCl)NCCCCCCCCCNC(=O)CCl,< 0.2 µM
9,COc1ccc(Nc2nc(N3CCCCC3)nc3ccccc23)c(OC)c1,22.7 µM
10,CN1C(=O)/C(=C/c2ccccc2Cl)Sc2ccc(C(=O)NCc3cccnc3)cc21,50.6 µM
11,Cc1ccc(CN2CCN(/N=C/c3ccc(Cl)c([N+](=O)[O-])c3)CC2)cc1,39.4 µM
12,O=c1c(Cl)c2oc3ccccc3nc-2c2ccccc12,12.1 µM
13,C=CCc1c(C)nc(SC)nc1Nc1ccc(C(C)=O)cc1,34.6 µM
14,CCOC(=O)N1CCC(n2c(SCC(=O)OCc3ccccc3)nc3ccsc3c2=O)CC1,61.6 µM
15,CCCSc1nn2c(=O)c3ccccc3nc2s1,14.7 µM
16,C#CCOCCOCCOCCNc1nc(N2CCN(C(=O)C(Cc3ccc(O)cc3)n3cc(C(N)CC(C)C)nn3)CC2)nc(N2CCN(C(=O)C(Cc3cc4ccccc4[nH]3)n3cc(C(N)Cc4ccc(O)cc4)nn3)CC2)n1 (stereo not drawn),16.9 µM
17,CC[C@@H](C)[C@H](CN[C@H](CNC)C(C)C)NC[C@@H](C)c1ccc(CC(C)C)cc1,13.3 µM
18,Cc1cc(-c2n[nH]c(=S)n2/N=C/C(Br)=C/c2ccccc2)n[nH]1,5.55 µM
19,O=C(CCc1c[nH]c2ccccc12)N1CCN(S(=O)(=O)c2ccccc2)CC1,78.7 µM
20,CCCn1c(=N)c(C(=O)NCc2ccc3c(c2)OCO3)cc2c(=O)n3cccc(C)c3nc21,20.6 µM
21,O=C(NCC1CC1)c1cc([N+](=O)[O-])cc([N+](=O)[O-])c1,6.57 µM

row,SMILES,IC50
1,COc1cccc(NC(=O)C2CCN(Cc3cnn(-c4ccccc4)c3-n3cccc3)CC2)c1,54.9 µM
2,CCCCOc1ccc(C(=O)Oc2ccc(C)nc2)cc1,54.8 µM
3,Cc1cccc(/C=C/C(=O)c2ccc([N+](=O)[O-])o2)c1,< 0.2 µM
4,CC1CCCC(NC(=O)NC(=O)CCl)C1C (stereo not drawn),8.62 µM
5,Cc1ccc(S(=O)(=O)NC(CC(C)C)C(=O)N2CCN(C/C=C/c3ccccc3)CC2)cc1 (stereo not drawn),66.4 µM
6,Clc1cc(Cl)cc(Nc2ncn[nH]2)c1,64.6 µM
7,Cc1c(Cl)ccc2c1NC(=O)[C@]21N[C@@H](Cc2ccccc2)[C@H]2C(=O)N(c3ccc(F)cc3)C(=O)[C@H]21,23.4 µM
8,c1ccc(-c2cn3c(n2)CCc2ccc4cccnc4c2-3)cc1,22.4 µM
9,CCNc1nc(NCC)nc(N/N=C/c2ccc([N+](=O)[O-])o2)n1,1.3 µM
10,C#C[C@]1(O)CC[C@H]2[C@@H]3CCc4cc(OC5CCCC5)ccc4[C@H]3CC[C@@]21C,36.6 µM
11,CC(C)(C)c1ccc(C(=O)NC(=S)NNC(=O)COc2ccccc2)cc1,28.8 µM
12,COc1ccc(-c2csc(NC(C)c3nc4cc(Cl)c(N5CCCCC5)cc4n3CCCO)n2)cc1 (stereo not drawn),23 µM
13,c1ccc(-n2cnc3cc(NCc4cccs4)ccc32)cc1,89 µM
14,COCc1nnc(NC(=O)C2CC(=O)N(c3ccc(C)c(Cl)c3)C2)s1 (stereo not drawn),76.5 µM
15,CCOC(=O)C1=C(C)NC(SCC(=O)Nc2nc(C)cs2)=C(C#N)C1c1cccs1 (stereo not drawn),31.3 µM
16,CCCOc1ccc2c(c1)C(=NN=C(N)N)c1cc(OCCC)ccc1-2,11.1 µM
17,c1ccc(CN2CCN(c3nc(NCc4ccco4)c4ccccc4n3)CC2)cc1,17.2 µM
18,O=C(CN1CCN(c2ccccc2O)CC1)Nc1ccccc1C(=O)NCCc1ccccc1,72.7 µM
19,CCCCS(=O)(=O)/C=C\C=C/S(=O)(=O)CCCC,2.24 µM
20,Clc1ccc(C(Cn2ccnc2)OCc2csc3c(Cl)cccc23)c(Cl)c1 (stereo not drawn),17.7 µM
21,Cc1cc(O)c2c(c1)C(=O)c1cc(O)cc(O)c1C2=O,89 µM

# Same assay, conditions: measured here: IC90 growth inhibition
row,SMILES,IC90
1,CS(=O)(=O)c1ncc(Cl)c(C(=O)Nc2ccc(OC(F)F)cc2)n1,> 25 µM
